Format in all cases: cell-based
The target in data set [1] is T1, Nuclear receptor subfamily 1 group I member 3 (Homo sapiens, UniProt Q14994).
T1 sequence (Q14994 whole entry): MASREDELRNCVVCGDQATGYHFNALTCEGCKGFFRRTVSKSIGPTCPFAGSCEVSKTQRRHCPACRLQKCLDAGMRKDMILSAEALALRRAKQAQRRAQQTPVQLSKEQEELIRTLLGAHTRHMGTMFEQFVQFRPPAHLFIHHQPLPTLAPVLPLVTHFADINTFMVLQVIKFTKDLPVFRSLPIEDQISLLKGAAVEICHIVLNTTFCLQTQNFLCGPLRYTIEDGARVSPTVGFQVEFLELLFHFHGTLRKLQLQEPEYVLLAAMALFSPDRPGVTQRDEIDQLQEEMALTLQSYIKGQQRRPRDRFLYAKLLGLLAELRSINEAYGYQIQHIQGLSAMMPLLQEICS
Put plainly: Activation of human CAR LBD expressed in human HepG2 cells at 30 uM incubated for 24 hrs by dual luciferase reporter assay relative to CITCO. The conditions noted are these: hepg2, 24 h. (Reporter assays use an easily measured gene product as a stand-in for the process of interest.)

For data set [2], the target named is T1, Nuclear receptor subfamily 1 group I member 3. The data set is described as follows: Activation of human CAR3 expressed in human HepG2 cells at 30 uM incubated for 24 hrs by dual luciferase gene reporter assay relative to CITCO. The following applies: hepg2, 24 h.
For data set [3] the target is unchanged. The data set is described as follows: Partial agonist activity at human CAR LBD (151 to 349 residues) expressed in HepG2 cells coexpressed with pGL5-luc luciferase measured after 1 to 4 hrs by LanthaScreen TR-FRET assay. The following applies: for Activity: human, hepg2, time 1-4 hrs.
The target is the same in data set [4]. Put plainly: Antagonist activity at human CAR LBD expressed in human HepG2 cells at 30 uM incubated for 24 hrs in presence of CITCO by dual luciferase reporter assay. The following applies: hepg2, 24 h.
The target in data set [5] is T2, CAR3 (NR1I3) (Homo sapiens, UniProt Q14994).
T2 sequence (Q14994 whole entry): T1 sequence (Q14994 whole entry)
The data set is described as follows: Antagonist activity at human CAR3 expressed in human HepG2 cells at 30 uM incubated for 24 hrs by dual luciferase gene reporter assay relative to CITCO. Also noted: scale not given: the % may be the effect or the level left. The conditions noted are these: HepG2 cells expressing human CAR3, read-out: Activity.

Data set [6] deals with T1, Nuclear receptor subfamily 1 group I member 3. Put plainly: Antagonist activity at human CAR LBD expressed in human HepG2 cells incubated for 24 hrs in presence of CITCO by dual luciferase reporter assay.
Data set [7] shares this target. The data set is described as follows: Antagonist activity at human CAR LBD (151 to 349 residues) expressed in HepG2 cells co-expressed with pGL5-luc luciferase assessed as reduction in CAR activation measured after 1 to 4 hrs in presence of CITCO by LanthaScreen TR-FRET assay. (In general: Time-resolved FRET reads energy transfer from a long-lived donor to a nearby acceptor.)

The target in data set [8] is T3, CAR (NR1I3) LBD (Homo sapiens, UniProt Q14994).
T3 sequence (Q14994 whole entry): T1 sequence (Q14994 whole entry)
Put plainly: Antagonist activity at human CAR LBD expressed in human HepG2 cells at 30 uM incubated for 24 hrs by dual luciferase reporter assay relative to CITCO. Also noted: scale not given: the % may be the effect or the level left. The conditions noted are these: HepG2 cells expressing human CAR LBD, read-out: Activity.

For data set [9], the target named is T1, Nuclear receptor subfamily 1 group I member 3. Put plainly: Antagonist activity at human CAR LBD (151 to 349 residues) expressed in HepG2 cells co-expressed with pGL5-luc luciferase assessed as reduction in CAR activation measured after 1 to 4 hrs by LanthaScreen TR-FRET assay. The conditions noted are these: time 1-4 hrs.
Data set [10] shares this target. The data set is described as follows: Partial agonist activity human CAR3 expressed in human HepG2 cells at 30 uM incubated for 24 hrs by dual luciferase gene reporter assay relative to CITCO. The conditions noted are these: hepg2, 24 h.
Data set [11] deals with T3, CAR (NR1I3) LBD. Put plainly: Partial agonist activity at human CAR LBD expressed in human HepG2 cells at 30 uM incubated for 24 hrs by dual luciferase reporter assay relative to CITCO. The following applies: HepG2 cells expressing human CAR LBD, read-out: Activity.

In the case of `COc1ccc(-c2nc(O)c3ccccc3n2)cc1OC`, the Activity in data set [1] worked out at 3%; in data set [2], 28%.

For the molecule `Cc1cccc(-c2nc(O)c3ccccc3n2)c1`, the Activity is reported as 5% in data set [1] and 34% in data set [2].

On to `COc1nc(-c2cccc([N+](=O)[O-])c2)nc2ccccc12`, for which the Activity is listed as -3% in data set [1] and 15% in [2].

Consider `Sc1nc(-c2ccc(Br)cc2)nc2ccccc12`, for which the Activity entry in [3] is “Not Active”; in data set [4] it was “Active”; in data set [9] it was “Not Active”. Also, the activity at 24 h, 30 µM was found to be 44% in data set [5] and 1% in data set [8]. For the same molecule, the IC50 – broadly, the concentration at which inhibition is half-maximal – in data set [6] is 30 µM; in data set [7] it was 95.7 µM.

For the molecule `Oc1nc(-c2ccc(F)cc2)nc2ccccc12`, the figures for the Activity in data set [1] and in [2] were -6% and 10%, respectively.

`O=c1[nH]c(-c2ccc(Br)cc2)nc2ccccc12`: the Activity in data set [1] is recorded as 3%; in data set [2], 12%.

In the case of `O=c1[nH]c(-c2ccc(C(F)(F)F)cc2)nc2ccccc12`, the Activity in data set [1] was -8%; in data set [2], 12%.

Turning to `COc1ccc(-c2nc3ccccc3c(=O)[nH]2)cc1`, the values for the Activity in [1] and in data set [2] were 3% and 33%, respectively.

Regarding `O=c1[nH]c(-c2ccc3c(c2)OCO3)nc2ccccc12`, the Activity in data set [1] is recorded as -2%; in [2], 3%.

Regarding `CC(C)(C)c1ccc(-c2nc3ccccc3c(=O)[nH]2)cc1`, the Activity is on record as -5% in data set [1] and 7% in data set [2].

As for `O=[N+]([O-])c1cccc(-c2nc3ccccc3c(=S)[nH]2)c1`, the Activity in [1] is 1%; in [2], 11%.

Regarding `COc1ccc(-c2nc3ccccc3c(=O)n2C)cc1OC`, the Activity is reported as -6% in data set [1] and 15% in data set [2].

For `COc1nc(-c2cccc(F)c2)nc2ccccc12`, the Activity is -5% in [1] and 5% in data set [2].

Regarding `COc1ccc(-c2nc3ccccc3c(=S)[nH]2)cc1OC`, the Activity in data set [1] is reported as -4%; in data set [2], 13%.

For `CC(C)(C)c1ccc(-c2nc3ccccc3c(=S)[nH]2)cc1`, the Activity was 1% in data set [1] and 9% in [2].

For the molecule `Cn1c(-c2ccc(OC(F)(F)F)cc2)nc2ccccc2c1=O`, the Activity result in [3] is recorded as “Not Active”; in [1], -8%; in data set [4], “Active”; in [2], 22%; in [9], “Not Active”.

`O=c1[nH]c(-c2ccc(Cl)c(Cl)c2)nc2ccccc12`: the Activity is listed as -6% in data set [1] and 9% in data set [2].

Take `S=c1[nH]c(-c2cccc(Cl)c2)nc2ccccc12`: the results for the Activity in data set [1] and in [2] were 6% and 15%, respectively.

Consider `CSc1nc(-c2cccc(C)c2)nc2ccccc12`, for which the EC50 (in general, the concentration giving half of the maximal effect) in data set [3] came to 10.6 µM. Also, the Activity entry was “Active” in data set [4] and 44% in data set [10]. The activity at 24 h, 30 µM in data set [11] came to 36.3%.

Consider `COc1nc(-c2ccc(OC(F)(F)F)cc2)nc2ccccc12`, for which the Activity in data set [1] is listed as -3%; in [2], 5%.

As to `Cn1c(-c2ccc(F)cc2)nc2ccccc2c1=O`, the Activity in [1] is -5%; in [2] it was 13%.

With `Cc1cccc(-c2nc3ccccc3c(=O)n2C)c1`, the Activity in data set [1] is recorded as -3%; in [2], 13%.

The values above are taken from ChEMBL document CHEMBL5625179, “2-Substituted quinazolines: Partial agonistic and antagonistic ligands of the constitutive androstane receptor (CAR)” (Eur J Med Chem, 2023).
